Patent US9346798B2, “Dihydrobenzoxazine and tetrahydroquinoxaline sodium channel inhibitors” (AMGEN INC., priority 2012, dated 2016)

Columns and labels:
Type in all cases: cell-based
[1] = molecular target: T1, Nav 1.7 (Homo sapiens (Human), UniProt Q15858); experiment: Nav 1.7 in vitro assay, IonWorks Quattro (IWQ) population patch-clamp; conditions: HEK 293 cells stably transfected with Nav 1.7; for IC50: 26th pulse to -20 mV; for inhibition at 4.9 µM: HEK293, values marked *, read-out: Nav 1.7 IWQ percent inhibition at 4.9 μM
Experimental: (§1) Nav 1.7 and Nav 1.5 In Vitro Assays
(§2) HEK 293 cells stably transfected with either Nav 1.7 or with Nav 1.5 were recorded in population patch-clamp mode with the IonWorks® Quattro automated electrophysiology system in accordance with the manufacturer's specifications (Molecular Devices, LLC, Sunnyvale, Calif.). Sodium channel currents were measured in response to a train of depolarizations that induced successively greater inactivation.
(§3) Cells were held at −110 mV for three seconds (Nav 1.7) or half a second (Nav 1.5) from a holding voltage of −15 mV, then put through a series of 26 pulses of 150 msec duration to −20 mV at a frequency of 5 Hz. Cells were then left unclamped for a period of 3 to 8 minutes while a single concentration of test compound was added. Cells were then reclamped and put through the same voltage protocol. Current at the end of the 26th pulse to −20 mV was subtracted from the peak current evoked by the 26th pulse to −20 mV to correct for leak current. Percent block was calculated for each concentration in duplicate, and IC50 curves were fitted to percent block as a function of concentration.

[2] = molecular target: T1, Nav 1.7; experiment: Nav 1.7 in vitro PX assay, PatchXpress whole cell voltage clamp; conditions: HEK 293 cells stably transfected with human Nav1.7; for IC50: partially inactivated state (20 to 50% inactivation)
Experimental: Nav 1.7 In Vitro PX Assay
HEK 293 cells stably transfected with human Nav1.7 were recorded in whole cell voltage clamp mode with the PatchXpress automated electrophysiology system (Molecular Devices, LLC, Sunnyvale, Calif.). Compound effects were measured on a partially inactivated state of the sodium channel. Cells were clamped to a holding potential yielding 20 to 50% inactivation. To elicit sodium current, channels were activated by pulsing to −10 mV for 20 msec. This voltage protocol was repeated at a rate of 0.1 Hz throughout the experiment. A single concentration of test compound was applied to cells for a duration of 3 minutes. Peak sodium current was measured at the end of the compound addition period to determine percent inhibition. Three to five cells were tested per concentration, and IC50 curves were fitted to percent inhibition as a function of concentration.

[3] = molecular target: Nav 1.5 (Homo sapiens (Human), UniProt Q14524); experiment: Nav 1.5 in vitro assay, IonWorks Quattro (IWQ) population patch-clamp; conditions: HEK 293 cells stably transfected with Nav 1.5; 26th pulse to -20 mV
Experimental: as §1, §2, §3

T1 sequence (Q15858 whole entry): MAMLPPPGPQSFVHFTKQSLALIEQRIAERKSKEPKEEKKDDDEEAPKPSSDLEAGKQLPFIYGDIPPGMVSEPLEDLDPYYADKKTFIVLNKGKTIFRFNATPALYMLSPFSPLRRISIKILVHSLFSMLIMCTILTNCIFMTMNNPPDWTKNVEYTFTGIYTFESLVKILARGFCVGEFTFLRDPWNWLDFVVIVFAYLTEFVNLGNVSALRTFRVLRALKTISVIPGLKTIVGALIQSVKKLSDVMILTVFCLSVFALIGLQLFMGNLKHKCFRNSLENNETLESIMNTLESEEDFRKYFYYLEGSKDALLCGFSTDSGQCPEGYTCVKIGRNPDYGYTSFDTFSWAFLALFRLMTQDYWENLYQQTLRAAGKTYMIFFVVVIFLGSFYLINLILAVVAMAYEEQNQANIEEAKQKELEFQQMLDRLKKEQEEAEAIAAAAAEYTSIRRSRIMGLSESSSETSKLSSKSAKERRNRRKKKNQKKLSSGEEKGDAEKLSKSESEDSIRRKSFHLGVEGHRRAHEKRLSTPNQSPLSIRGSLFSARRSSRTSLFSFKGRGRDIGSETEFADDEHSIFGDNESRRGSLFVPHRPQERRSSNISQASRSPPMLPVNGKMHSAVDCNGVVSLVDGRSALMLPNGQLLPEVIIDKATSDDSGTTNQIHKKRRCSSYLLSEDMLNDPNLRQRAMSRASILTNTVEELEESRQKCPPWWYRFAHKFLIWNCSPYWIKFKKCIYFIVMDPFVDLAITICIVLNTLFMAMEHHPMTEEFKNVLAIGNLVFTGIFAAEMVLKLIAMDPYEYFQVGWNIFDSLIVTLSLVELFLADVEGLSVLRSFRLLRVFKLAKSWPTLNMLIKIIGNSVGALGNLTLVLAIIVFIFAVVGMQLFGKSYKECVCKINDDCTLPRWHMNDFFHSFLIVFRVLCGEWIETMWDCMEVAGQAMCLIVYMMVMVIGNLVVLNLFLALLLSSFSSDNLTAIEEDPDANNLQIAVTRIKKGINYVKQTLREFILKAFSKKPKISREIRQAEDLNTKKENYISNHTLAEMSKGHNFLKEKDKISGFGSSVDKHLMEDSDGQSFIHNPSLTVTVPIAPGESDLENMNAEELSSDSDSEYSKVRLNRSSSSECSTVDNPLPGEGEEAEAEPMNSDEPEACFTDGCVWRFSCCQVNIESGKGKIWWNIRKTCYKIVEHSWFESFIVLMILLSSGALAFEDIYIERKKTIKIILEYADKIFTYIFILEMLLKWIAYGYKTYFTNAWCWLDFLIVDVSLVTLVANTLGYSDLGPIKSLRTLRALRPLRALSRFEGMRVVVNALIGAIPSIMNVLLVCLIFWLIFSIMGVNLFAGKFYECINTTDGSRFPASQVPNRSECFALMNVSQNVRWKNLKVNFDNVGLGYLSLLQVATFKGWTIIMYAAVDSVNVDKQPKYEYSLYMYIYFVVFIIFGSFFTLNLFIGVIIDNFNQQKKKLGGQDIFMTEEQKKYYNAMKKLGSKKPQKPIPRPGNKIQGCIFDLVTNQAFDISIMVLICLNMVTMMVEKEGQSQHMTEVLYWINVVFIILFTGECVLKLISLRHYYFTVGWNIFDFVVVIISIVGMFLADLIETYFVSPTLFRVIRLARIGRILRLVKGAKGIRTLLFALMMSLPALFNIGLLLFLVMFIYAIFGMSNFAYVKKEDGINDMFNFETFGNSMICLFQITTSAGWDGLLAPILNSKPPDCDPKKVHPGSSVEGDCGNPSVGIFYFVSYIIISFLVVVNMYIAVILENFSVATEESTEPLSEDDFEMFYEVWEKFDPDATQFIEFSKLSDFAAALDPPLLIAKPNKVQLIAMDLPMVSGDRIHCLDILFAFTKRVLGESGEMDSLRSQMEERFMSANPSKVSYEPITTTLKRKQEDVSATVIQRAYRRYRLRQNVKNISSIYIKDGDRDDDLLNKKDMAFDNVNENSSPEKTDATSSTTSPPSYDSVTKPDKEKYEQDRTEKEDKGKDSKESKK
Sequence of Nav 1.5 (Q14524 whole entry): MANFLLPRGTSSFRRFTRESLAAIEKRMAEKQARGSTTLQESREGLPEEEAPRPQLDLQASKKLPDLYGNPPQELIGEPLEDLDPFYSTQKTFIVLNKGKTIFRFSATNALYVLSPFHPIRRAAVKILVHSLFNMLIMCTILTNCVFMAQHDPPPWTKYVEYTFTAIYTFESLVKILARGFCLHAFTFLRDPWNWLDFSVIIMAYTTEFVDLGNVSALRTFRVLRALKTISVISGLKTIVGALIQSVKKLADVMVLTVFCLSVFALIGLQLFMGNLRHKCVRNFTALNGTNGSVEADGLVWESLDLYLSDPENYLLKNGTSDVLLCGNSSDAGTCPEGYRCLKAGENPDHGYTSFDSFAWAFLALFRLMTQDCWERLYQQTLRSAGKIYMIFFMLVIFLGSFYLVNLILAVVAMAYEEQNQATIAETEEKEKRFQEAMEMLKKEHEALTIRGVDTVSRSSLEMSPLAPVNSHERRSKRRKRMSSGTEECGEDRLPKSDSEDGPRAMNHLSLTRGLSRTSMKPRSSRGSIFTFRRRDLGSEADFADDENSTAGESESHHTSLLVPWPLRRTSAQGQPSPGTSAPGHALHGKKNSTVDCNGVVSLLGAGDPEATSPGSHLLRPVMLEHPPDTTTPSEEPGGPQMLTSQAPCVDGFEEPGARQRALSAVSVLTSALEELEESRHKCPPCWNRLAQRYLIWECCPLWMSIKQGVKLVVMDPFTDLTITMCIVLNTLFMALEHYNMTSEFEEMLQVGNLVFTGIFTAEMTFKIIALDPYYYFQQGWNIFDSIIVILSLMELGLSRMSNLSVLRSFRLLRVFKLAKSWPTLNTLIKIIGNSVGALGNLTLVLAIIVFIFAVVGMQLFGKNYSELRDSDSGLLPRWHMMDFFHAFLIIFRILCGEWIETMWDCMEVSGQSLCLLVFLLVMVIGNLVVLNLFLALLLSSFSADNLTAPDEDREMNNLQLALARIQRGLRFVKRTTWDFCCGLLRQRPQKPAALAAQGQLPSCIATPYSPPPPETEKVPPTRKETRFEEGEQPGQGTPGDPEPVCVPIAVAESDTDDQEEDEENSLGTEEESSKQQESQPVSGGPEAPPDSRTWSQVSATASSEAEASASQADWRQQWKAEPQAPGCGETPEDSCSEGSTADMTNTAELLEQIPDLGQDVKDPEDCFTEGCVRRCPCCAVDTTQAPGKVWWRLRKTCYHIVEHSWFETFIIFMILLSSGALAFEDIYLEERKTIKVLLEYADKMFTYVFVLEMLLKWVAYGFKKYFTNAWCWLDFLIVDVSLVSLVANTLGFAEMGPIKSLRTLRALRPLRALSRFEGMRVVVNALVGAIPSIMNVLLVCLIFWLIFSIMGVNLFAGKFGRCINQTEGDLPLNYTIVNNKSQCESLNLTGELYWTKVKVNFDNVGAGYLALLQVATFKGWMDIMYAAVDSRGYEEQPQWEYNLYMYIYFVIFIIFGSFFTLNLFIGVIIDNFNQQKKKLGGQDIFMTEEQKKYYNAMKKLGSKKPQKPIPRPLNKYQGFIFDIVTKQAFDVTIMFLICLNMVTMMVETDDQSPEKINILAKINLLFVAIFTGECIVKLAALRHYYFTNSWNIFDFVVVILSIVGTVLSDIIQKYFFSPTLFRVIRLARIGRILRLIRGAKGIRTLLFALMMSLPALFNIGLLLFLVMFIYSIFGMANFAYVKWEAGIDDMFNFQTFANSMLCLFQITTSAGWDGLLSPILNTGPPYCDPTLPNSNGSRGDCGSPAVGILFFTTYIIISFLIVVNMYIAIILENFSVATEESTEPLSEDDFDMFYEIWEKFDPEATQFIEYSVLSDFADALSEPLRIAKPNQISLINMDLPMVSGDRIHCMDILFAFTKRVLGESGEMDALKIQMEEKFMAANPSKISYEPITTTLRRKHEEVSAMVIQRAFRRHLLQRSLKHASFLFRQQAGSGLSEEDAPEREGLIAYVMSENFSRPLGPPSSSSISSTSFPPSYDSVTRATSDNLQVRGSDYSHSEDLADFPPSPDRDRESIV

IC50 [1] [nM] | IC50 [2] [nM] | inhibition at 4.9 µM ([2]; HEK293, values marked *, 4.9 μM, read-out: Nav 1.7 PX percent inhibition at 4.9 μM) [%] | inhibition at 4.9 µM [1] [%] | Structure (SMILES) | IC50 [3] [nM]
72.5 | 534 | – | – | O=S(=O)(Nc1ccncn1)c1ccc2c(c1)OCCN2c1ccc(C(F)(F)F)cc1Cl [Example 32, 4-(2-Chloro-4-(Trifluoromethyl)Phenyl)-N-(Pyrimidin-4-Yl)-3,4-Dihydro-2H-Benzo[B][1,4]Oxazine-7-Sulfonamide] | 4770
5190 | – | 26.2 | – | COc1cc(C#N)ccc1CN1CCOc2cc(S(=O)(=O)Nc3nccs3)ccc21 [Example 219, 4-(4-Cyano-2-Methoxybenzyl)-N-(Thiazol-2-Yl)-3,4-Dihydro-2H-Benzo[B][1,4]Oxazine-7-Sulfonamide] | > 10000
11.5 | 585 | – | – | O=S(=O)(Nc1nccs1)c1ccc2c(c1)OCCN2c1ccc(C(F)(F)F)cc1-c1cncnc1 [Example 54, 4-(2-(Pyrimidin-5-Yl)-4-(Trifluoromethyl)Phenyl)-N-(Thiazol-2-Yl)-3,4-Dihydro-2H-Benzo[B][1,4]Oxazine-7-Sulfonamide 2,2,2-Trifluoroacetate] | 731
28.5 | 464 | – | – | N#Cc1cc(C(F)(F)F)ccc1N1CCOc2cc(S(=O)(=O)Nc3ccncn3)ccc21 [Example 89, 4-(2-Cyano-4-(Trifluoromethyl)Phenyl)-N-(Pyrimidin-4-Yl)-3,4-Dihydro-2H-Benzo[B][1,4]Oxazine-7-Sulfonamide] | 1140
31.5 | 174 | – | – | O=S(=O)(Nc1nccs1)c1ccc2c(c1)OCCN2c1ccc(C(F)(F)F)cc1CO [Example 206, 4-(2-(hydroxymethyl)-4-(trifluoromethyl)phenyl)-N-(thiazol-2-yl)-3,4-dihydro-2H-benzo[b][1,4]oxazine-7-sulfonamide] | 1140
263 | 2900 | – | – | O=S(=O)(Nc1nccs1)c1ccc2c(c1)OCCN2c1cccc2c1OC(F)(F)O2 [Example 129, 4-(2,2-Difluorobenzo[d][1,3]dioxol-4-yl)-N-(thiazol-2-yl)-3,4-dihydro-2H-benzo[b][1,4]oxazine-7-sulfonamide] | > 10000
796 | 2240 | – | – | COc1ccc(N2CCOc3cc(S(=O)(=O)Nc4nccs4)ccc32)c(OC)c1 [Example 120, 4-(2,4-Dimethoxyphenyl)-N-(thiazol-2-yl)-3,4-dihydro-2H-benzo[b][1,4]oxazine-7-sulfonamide] | > 10000
1720 | 5160 | – | – | O=S(=O)(Nc1ccon1)c1ccc2c(c1)OCCN2c1ccc(C(F)(F)F)cc1Cl [Example 13, 4-(2-Chloro-4-(Trifluoromethyl)Phenyl)-N-(Isoxazol-3-Yl)-3,4-Dihydro-2H-Benzo[B][1,4]Oxazine-7-Sulfonamide] | > 10000
224 | 737 | – | – | O=S(=O)(Nc1cnccn1)c1ccc2c(c1)OCCN2c1ccc(C(F)(F)F)cc1C1=CCNCC1 [Example 88, N-(Pyrazin-2-Yl)-4-(2-(1,2,3,6-Tetrahydropyridin-4-Yl)-4-(Trifluoromethyl)Phenyl)-3,4-Dihydro-2H-Benzo[B][1,4]Oxazine-7-Sulfonamide] | > 10000
198 | 2550 | – | – | O=S(=O)(Nc1nccs1)c1ccc2c(c1)OCCN2c1ccccc1C1CCOCC1 [Example 149, 4-(2-(Tetrahydro-2H-Pyran-4-Yl)Phenyl)-N-(Thiazol-2-Yl)-3,4-Dihydro-2H-Benzo[B][1,4]Oxazine-7-Sulfonamide] | > 10000
1420 | 8150 | – | – | N#Cc1cccc(F)c1N1CCOc2cc(S(=O)(=O)Nc3nccs3)ccc21 [Example 159, 4-(2-Cyano-6-Fluorophenyl)-N-(Thiazol-2-Yl)-3,4-Dihydro-2H-Benzo[B][1,4]Oxazine-7-Sulfonamide] | > 10000
93.5 | 428 | – | – | CC(C)c1ccc(N2CCOc3cc(S(=O)(=O)Nc4nccs4)ccc32)c(C#N)c1 [Example 202, 4-(2-cyano-4-isopropylphenyl)-N-(thiazol-2-yl)-3,4-dihydro-2H-benzo[b][1,4]oxazine-7-sulfonamide] | 686
9.33 | 57.6 | – | – | O=S(=O)(Nc1ncns1)c1ccc2c(c1)OCCN2c1ccc(C(F)(F)F)cc1-c1cn[nH]c1 [Example 4, 4-(2-(1H-Pyrazol-4-Yl)-4-(Trifluoromethyl)Phenyl)-N-(1,2,4-Thiadiazol-5-Yl)-3,4-Dihydro-2H-Benzo[B][1,4]Oxazine-7-Sulfonamide] | 944
29.8 | 659 | – | – | O=S(=O)(Nc1ncns1)c1ccc2c(c1)OCCN2c1ccc(C(F)(F)F)cc1-c1cncnc1 [Example 23, 4-(2-(Pyrimidin-5-Yl)-4-(Trifluoromethyl)Phenyl)-N-(1,2,4-Thiadiazol-5-Yl)-3,4-Dihydro-2H-Benzo[B][1,4]Oxazine-7-Sulfonamide] | 5410
13.5 | 158 | – | – | COc1ccc(F)cc1N1CCOc2cc(S(=O)(=O)Nc3nccs3)ccc21 [Example 151, 4-(5-Fluoro-2-methoxyphenyl)-N-(thiazol-2-yl)-3,4-dihydro-2H-benzo[b][1,4]oxazine-7-sulfonamide] | > 10000
– | – | – | 41.1 | O=S(=O)(Nc1cncs1)c1ccc2c(c1)OCCN2c1ccc(C(F)(F)F)cc1C1=CCNCC1 [Example 85, 4-(2-(1,2,3,6-Tetrahydropyridin-4-Yl)-4-(Trifluoromethyl)Phenyl)-N-(Thiazol-5-Yl)-3,4-Dihydro-2H-Benzo[B][1,4]Oxazine-7-Sulfonamide 2,2,2-Trifluoroacetate] | > 10000
– | – | – | 24.5 | Cc1cnc(NS(=O)(=O)c2ccc3c(c2)OCCN3c2ccc(C(F)(F)F)cc2Cl)s1 [Example 12, 4-(2-Chloro-4-(Trifluoromethyl)Phenyl)-N-(5-Methylthiazol-2-Yl)-3,4-Dihydro-2H-Benzo[B][1,4]Oxazine-7-Sulfonamide] | > 10000
2140 | – | – | – | N#Cc1cncc(N2CCOc3cc(S(=O)(=O)Nc4nccs4)ccc32)c1 [Example 117, 4-(5-Cyanopyridin-3-yl)-N-(thiazol-2-yl)-3,4-dihydro-2H-benzo[b][1,4]oxazine-7-sulfonamide] | > 10000
– | – | – | 20 | CCN(CC)C(=O)CN1CCOc2cc(S(=O)(=O)Nc3nccs3)ccc21 [Example 228, N,N-Diethyl-2-(7-(N-(Thiazol-2-Yl)Sulfamoyl)-2H-Benzo[B][1,4]Oxazin-4(3 H)-Yl)Acetamide] | > 10000
6110 | – | – | – | Cn1ccc(NS(=O)(=O)c2ccc3c(c2)OCCN3c2ccc(C(F)(F)F)cc2Cl)n1 [Example 15, 4-(2-Chloro-4-(Trifluoromethyl)Phenyl)-N-(1-Methyl-1H-Pyrazol-3-Yl)-3,4-Dihydro-2H-Benzo[B][1,4]Oxazine-7-Sulfonamide] | > 10000
2530 | – | – | – | COc1ccc(N2CCOc3cc(S(=O)(=O)Nc4nccs4)ccc32)cc1OC [Example 119, 4-(3,4-Dimethoxyphenyl)-N-(thiazol-2-yl)-3,4-dihydro-2H-benzo[b][1,4]oxazine-7-sulfonamide] | > 10000
3560 | – | – | – | Cc1ccc(N2CCOc3cc(S(=O)(=O)Nc4nccs4)ccc32)c(C)n1 [Example 132, 4-(2,6-Dimethylpyridin-3-yl)-N-(thiazol-2-yl)-3,4-dihydro-2H-benzo[b][1,4]oxazine-7-sulfonamide] | > 10000
7580 | – | – | – | Cc1ccc2cnccc2c1N1CCOc2cc(S(=O)(=O)Nc3nccs3)ccc21 [Example 73, 4-(6-Methylisoquinolin-5-Yl)-N-(Thiazol-2-Yl)-3,4-Dihydro-2H-Benzo[B][1,4]Oxazine-7-Sulfonamide 2,2,2-Trifluoroacetate] | > 10000
– | – | – | 26.4 | O=C1COc2cc(S(=O)(=O)Nc3nncs3)ccc2N1c1cccc(Cl)c1 [Example 92, 4-(3-Chlorophenyl)-3-Oxo-N-(1,3,4-Thiadiazol-2-Yl)-3,4-Dihydro-2H-Benzo[B][1,4]Oxazine-7-Sulfonamide] | > 10000

Structure (SMILES) | IC50 [1] [nM] | IC50 [2] [nM] | inhibition at 4.9 µM ([2]; HEK293, values marked *, 4.9 μM, read-out: Nav 1.7 PX percent inhibition at 4.9 μM) [%] | inhibition at 4.9 µM [1] [%] | IC50 [3] [nM]
COc1cc(C#N)ccc1N1CCOc2cc(S(=O)(=O)Nc3nccs3)ccc21 [Example 181, 4-(4-Cyano-2-Methoxyphenyl)-N-(Thiazol-2-Yl)-3,4-Dihydro-2H-Benzo[B][1,4]Oxazine-7-Sulfonamide 2,2,2-Trifluoroacetate] | 7.5 | 175 | – | – | > 10000
